From ChEMBL document CHEMBL5236598, “Lead Optimization and Avoidance of Metabolic-perturbing Motif Developing Novel Diarylpyrimidines as Potent HIV-1 NNRTIs” (J Med Chem, 2022)

What was measured:
[1] = Subacute toxicity in Kunming mouse assessed as clonic convulsion at 50 mg/kg/day, po administered for 2 weeks; format: organism-based; settings: in vivo, 336 h
[2] = Subacute toxicity in Kunming mouse assessed as abnormalities in heart at 50 mg/kg/day, po administered for 2 weeks; format: organism-based; settings: in vivo, 336 h
[3] = Subacute toxicity in Kunming mouse assessed as abnormalities in lungs at 50 mg/kg/day, po administered for 2 weeks; format: organism-based; settings: in vivo, 336 h
[4] = AUC (0 to t) in ICR mouse at 2 mg/kg, iv measured for 12 hrs by LC-MS/MS analysis; format: ADME, organism-based; set-up: dose 2 mg/kg, time 12 hrs, route iv; settings: in vivo
[5] = Aqueous solubility of compound at pH 2 at 0.1 to 10 mg; format: physicochemical; settings: aqueous medium, dose 0.1-10 mg
[6] = Metabolic stability in human liver microsomes assessed as intrinsic clearance preincubated for 10 mins followed by NADPH regenerating system addition and measured after 2 hrs by LC-MS/MS analysis; format: ADME, Microsome; settings: time 130 min, read-out: CLH
[7] = Clearance in ICR mouse at 2 mg/kg, iv measured for 12 hrs by LC-MS/MS analysis; format: ADME, organism-based; settings: in vivo
[8] = Tmax in ICR mouse at 10 mg/kg, po measured for 12 hrs by LC-MS/MS analysis; format: ADME, organism-based; settings: in vivo
[9] = AUC (0 to infinity) in ICR mouse at 10 mg/kg, po measured for 12 hrs by LC-MS/MS analysis; format: ADME, organism-based; set-up: time 12 hrs, dose 10 mg/kg, route po; settings: in vivo
[10] = Subacute toxicity in Kunming mouse assessed as abnormalities in kidneys at 50 mg/kg/day, po administered for 2 weeks; format: organism-based; settings: in vivo, 336 h
[11] = Subacute toxicity in Kunming mouse assessed as anorexia at 50 mg/kg/day, po administered for 2 weeks; format: organism-based; settings: in vivo, 336 h
[12] = Subacute toxicity in Kunming mouse assessed as abnormalities in spleen at 50 mg/kg/day, po administered for 2 weeks; format: organism-based; settings: in vivo, 336 h
[13] = Subacute toxicity in Kunming mouse assessed as abnormalities in liver at 50 mg/kg/day, po administered for 2 weeks; format: organism-based; settings: in vivo, 336 h
[14] = Subacute toxicity in Kunming mouse assessed as appearance of lesions in liver at 50 mg/kg/day, po administered for 2 weeks; format: organism-based; settings: in vivo, 336 h
[15] = Oral bioavailability in ICR mouse at 10 mg/kg measured for 12 hrs by LC-MS/MS analysis; format: ADME, organism-based; settings: in vivo
[16] = Subacute toxicity in Kunming mouse assessed as appearance of lesions in kidneys at 50 mg/kg/day, po administered for 2 weeks; format: organism-based; settings: in vivo, 336 h
[17] = Acute toxicity in Kunming mouse assessed as change in body weight at 2000 mg/kg, po administered for 7 days; format: organism-based; settings: in vivo, 168 h, time 7 day
[18] = Acute toxicity in Kunming mouse assessed as abnormal behaviour at 2000 mg/kg, po administered for 7 days; format: organism-based; settings: in vivo, 168 h, time 7 day
[19] = Half life in ICR mouse at 2 mg/kg, iv measured for 12 hrs by LC-MS/MS analysis; format: ADME, organism-based; settings: in vivo
[20] = Subacute toxicity in Kunming mouse assessed as lethargy at 50 mg/kg/day, po administered for 2 weeks; format: organism-based; settings: in vivo, 336 h
[21] = Aqueous solubility of compound at pH 7.4 at 0.1 to 10 mg; format: physicochemical; settings: aqueous medium, dose 0.1-10 mg
[22] = Tmax in ICR mouse at 2 mg/kg, iv measured for 12 hrs by LC-MS/MS analysis; format: ADME, organism-based; settings: in vivo
[23] = Cmax in ICR mouse at 2 mg/kg, iv measured for 12 hrs by LC-MS/MS analysis; format: ADME, organism-based; set-up: time 12 hrs, dose 2 mg/kg, route iv; settings: in vivo
[24] = Cmax in ICR mouse at 10 mg/kg, po measured for 12 hrs by LC-MS/MS analysis; format: ADME, organism-based; set-up: time 12 hrs, dose 10 mg/kg, route po; settings: in vivo
[25] = Subacute toxicity in Kunming mouse assessed as signs of toxicity at 50 mg/kg/day, po administered for 2 weeks; format: organism-based; settings: in vivo, 336 h
[26] = AUC (0 to infinity) in ICR mouse at 2 mg/kg, iv measured for 12 hrs by LC-MS/MS analysis; format: ADME, organism-based; set-up: dose 2 mg/kg, time 12 hrs, route iv; settings: in vivo
[27] = Metabolic stability in human liver microsomes assessed as half life preincubated for 10 mins followed by NADPH regenerating system addition and measured after 2 hrs by LC-MS/MS analysis; format: ADME, Microsome; settings: time 130 min
[28] = Subacute toxicity in Kunming mouse assessed as ruffled fur at 50 mg/kg/day, po administered for 2 weeks; format: organism-based; settings: in vivo, 336 h
[29] = Metabolic stability in human liver microsomes assessed as parent compound remaining preincubated for 10 mins followed by NADPH regenerating system addition and measured after 60 mins by LC-MS/MS analysis; format: ADME, Microsome; settings: time 70 min, read-out: Stability
[30] = Subacute toxicity in Kunming mouse assessed as appearance of lesions in spleen at 50 mg/kg/day, po administered for 2 weeks; format: organism-based; settings: in vivo, 336 h
[31] = Half life in ICR mouse at 10 mg/kg, po measured for 12 hrs by LC-MS/MS analysis; format: ADME, organism-based; settings: in vivo
[32] = Aqueous solubility of compound at pH 7 at 0.1 to 10 mg; format: physicochemical; settings: aqueous medium, dose 0.1-10 mg
[33] = AUC (0 to t) in ICR mouse at 10 mg/kg, po measured for 12 hrs by LC-MS/MS analysis; format: ADME, organism-based; set-up: dose 10 mg/kg, time 12 hrs, route po; settings: in vivo
[34] = Subacute toxicity in Kunming mouse assessed as appearance of lesions in heart at 50 mg/kg/day, po administered for 2 weeks; format: organism-based; settings: in vivo, 336 h
[35] = Subacute toxicity in Kunming mouse assessed as appearance of lesions in lungs at 50 mg/kg/day, po administered for 2 weeks; format: organism-based; settings: in vivo, 336 h
[36] = test system: Human immunodeficiency virus 1; experiment: Antiviral activity against HIV-1 harboring RT E138K mutant infected in human MT4 cells assessed as protection against virus-induced cytopathic effect incubated for 5 days by MTT assay; format: functional, organism-based; settings: Human immunodeficiency virus 1, MT4, 120 h
[37] = test system: Human immunodeficiency virus 1; experiment: Antiviral activity against HIV-1 harboring RT Y188L mutant infected in human MT4 cells assessed as protection against virus-induced cytopathic effect incubated for 5 days by MTT assay; format: functional, organism-based; settings: Human immunodeficiency virus 1, MT4, 120 h
[38] = test system: Human immunodeficiency virus 1; experiment: Antiviral activity against HIV-1 harboring RT F227L/V106A double mutant infected in human MT4 cells assessed as protection against virus-induced cytopathic effect incubated for 5 days by MTT assay; format: functional, organism-based; settings: Human immunodeficiency virus 1, MT4, 120 h
[39] = test system: Human immunodeficiency virus 1; experiment: Antiviral activity against wild type HIV-1 IIIB infected in human MT4 cells assessed as protection against virus-induced cytopathic effect incubated for 5 days by MTT assay; format: functional, organism-based; settings: Human immunodeficiency virus 1, IIIB, MT4, 120 h
[40] = test system: Human immunodeficiency virus 1; experiment: Antiviral activity against HIV-1 harboring RT K103N mutant infected in human MT4 cells assessed as protection against virus-induced cytopathic effect incubated for 5 days by MTT assay; format: functional, organism-based; settings: Human immunodeficiency virus 1, MT4, 120 h
[41] = Cytotoxicity against human MT4 cells assessed as reduction in cell viability measured after 5 days by MTT assay; format: toxicity, cell-based; settings: time 5 day
[42] = test system: Human immunodeficiency virus 1; experiment: Antiviral activity against HIV-1 RES056 harboring RT K103N/Y181C double mutant infected in human MT4 cells assessed as protection against virus-induced cytopathic effect incubated for 5 days by MTT assay; format: functional, organism-based; settings: Human immunodeficiency virus 1, RES056, MT4, 120 h

Q: Which Activity [1] does the source give for `Cc1cc(/C=C/C#N)cc(C)c1Oc1nc(Nc2ccc(C#N)c(F)c2)nc2c1COC2.Cl` here?
A: The Activity was “Non-Toxic”.

Q: What about the Activity [2] of the same molecule?
A: Its Activity is “Non-Toxic”.

Q: What about the Activity [3] of the same molecule?
A: The Activity was “Non-Toxic”.

Q: And the AUC(0-t) at 12 h [4]?
A: The AUC(0-t) at 12 h was 0.25 µg·h/mL.

Q: What about the solubility [5] of the same molecule?
A: Its solubility is 0.349 mg/mL.

Q: What about the microsomal CLint [6] of the same molecule?
A: Its microsomal CLint is 87.6 µL/min/mg.

Q: And the CL [7]?
A: Its CL is 103 L/h/kg.

Q: And the Tmax [8]?
A: Its Tmax is 15 min.

Q: And the AUC(0-inf) [9]?
A: Its AUC(0-inf) is 0.154 µg·h/mL.

Q: And the Activity [10]?
A: Its Activity is “Non-Toxic”.

Q: What about the Activity [11] of the same molecule?
A: The Activity was “Non-Toxic”.

Q: What about the Activity [12] of the same molecule?
A: The Activity was “Non-Toxic”.

Q: What about the Activity [13] of the same molecule?
A: Its Activity is “Non-Toxic”.

Q: What about the Activity [14] of the same molecule?
A: The Activity was “Non-Toxic”.

Q: And the bioavailability [15]?
A: The bioavailability was 12.1%.

Q: What about the Activity [16] of the same molecule?
A: The Activity was “Non-Toxic”.

Q: What about the Activity [17] of the same molecule?
A: Its Activity is “Non-Toxic”.

Q: And the Activity [18]?
A: The Activity was “Non-Toxic”.

Q: And the half-life [19]?
A: Its half-life is 85.8 min.

Q: And the Activity [20]?
A: The Activity was “Non-Toxic”.

Q: And the solubility [21]?
A: Its solubility is 0.0389 mg/mL.

Q: And the Tmax [22]?
A: The Tmax was 0 h.

Q: What about the Cmax [23] of the same molecule?
A: Its Cmax is 0.484 µg/mL.

Q: What about the Cmax [24] of the same molecule?
A: Its Cmax is 0.0375 µg/mL.

Q: What about the Activity [25] of the same molecule?
A: Its Activity is “Non-Toxic”.

Q: And the AUC [26]?
A: The AUC was 0.255 µg·h/mL.

Q: What about the half-life [27] of the same molecule?
A: Its half-life is 11.3 min.

Q: What about the Activity [28] of the same molecule?
A: The Activity was “Non-Toxic”.

Q: What about the remaining at 1 h [29] of the same molecule?
A: Its remaining at 1 h is 5%.

Q: And the Activity [30]?
A: The Activity was “Non-Toxic”.

Q: What about the half-life [31] of the same molecule?
A: Its half-life is 307 min.

Q: And the solubility [32]?
A: The solubility was 0.149 mg/mL.

Q: What about the AUC(0-t) at 12 h [33] of the same molecule?
A: The AUC(0-t) at 12 h was 0.107 µg·h/mL.

Q: And the Activity [34]?
A: Its Activity is “Non-Toxic”.

Q: And the Activity [35]?
A: Its Activity is “Non-Toxic”.

Q: With `C[C@]12CC[C@H]3[C@@H](CCC4=CC(=O)CC[C@@]43C)[C@@H]1CC[C@@H]2O` [TESTOSTERONE] as the molecule, how does the half-life [27] read?
A: Its half-life is 11.1 min.

Q: What does the source list for `Cc1cc(C#N)cc(C)c1Oc1nc(Nc2ccc(C#N)cc2)nc(N)c1Br` [ETRAVIRINE]?
A: EC50 [36]: 0.0181 µM; EC50 [37]: 0.0251 µM; EC50 [38]: 0.0254 µM; EC50 [39]: 0.0033 µM; EC50 [40]: 0.0043 µM; CC50 at 120 h [41]: > 4.61 µM; EC50 [42]: 0.0762 µM
